Experiments:
[1] = molecular target: T1, horseradish peroxidase (HRP) (Armoracia rusticana, UniProt P00433); test: Peroxide-induced inhibition; type: biochemical; conditions: [LH-] = 750 μM; [HRP] = 2 μg/mL; pH 9
T1 sequence (P00433 31-338 limits assumed): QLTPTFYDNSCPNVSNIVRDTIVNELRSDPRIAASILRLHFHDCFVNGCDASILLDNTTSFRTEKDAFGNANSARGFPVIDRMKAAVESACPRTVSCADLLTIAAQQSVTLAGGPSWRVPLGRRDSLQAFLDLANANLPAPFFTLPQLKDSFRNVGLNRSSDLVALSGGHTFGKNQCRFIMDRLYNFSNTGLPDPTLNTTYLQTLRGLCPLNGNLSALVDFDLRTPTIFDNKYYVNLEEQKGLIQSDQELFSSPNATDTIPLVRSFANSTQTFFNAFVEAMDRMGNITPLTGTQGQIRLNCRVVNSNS

Cyt c = Cyt c (Equus caballus, UniProt P00004); type: biochemical, equine; conditions: for concentration at which an effect on the Cyt c-catalysed reaction starts: [Cyt c] = 15 μg/mL
Sequence of Cyt c (P00004 whole entry): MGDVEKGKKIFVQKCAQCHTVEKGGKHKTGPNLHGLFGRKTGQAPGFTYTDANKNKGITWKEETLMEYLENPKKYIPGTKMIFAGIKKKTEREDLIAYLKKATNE

HRP [2] = molecular target: T2, HRP (Armoracia rusticana, UniProt P00433); conditions: [H2O2] of 17.6 mM; cited from earlier work
T2 sequence (P00433 31-338 limits assumed): T1 sequence (P00433 31-338 limits assumed)

HRP [3] = molecular target: T2, HRP; test: Enhancement of the HRP-catalysed luminol reaction by aromatic hydrogen donors; type: biochemical, horseradish; conditions: [H2O2] = 1.1 mM; [LH-] = 750 μM; pH 9
[4] = [LH-] = 750 μM, [H2O2] = 1.1 mM, pH 9

| IC50 (Cyt c) [µM] | concentration at which an effect on the Cyt c-catalysed reaction starts (Cyt c; [4]) | kind of quenching of Cyt c-catalysed luminescence (kinetics) (Cyt c; [Cyt c] = 20 μg/mL, [LH-] = 750 μM, [H2O2] = 1.1 mM, pH 9) | Structure (SMILES) | protection of HRP against high [H2O2] (shift of peroxide inhibition) [1] | concentration for maximal enhancement (HRP [2]) [mM] | concentration for maximal enhancement of the HRP-catalysed reaction (HRP [3]) |
| --- | --- | --- | --- | --- | --- | --- |
| 41 | about 10 μM |  | N[C@@H](CCC(=O)N[C@@H](CS)C(=O)NCC(=O)O)C(=O)O [GSH, glutathione] | does not exert a protective effect on HRP |  |  |
|  |  |  | Oc1ccc(I)cc1 [IP, iodophenol] |  | 4 | around 200 μM |
|  | 80 µM | permanent luminescence quenching | NC(=O)C1=CN([C@@H]2O[C@H](COP(=O)([O-])OP(=O)([O-])OC[C@H]3O[C@@H](n4cnc5c(N)ncnc54)[C@H](O)[C@@H]3O)[C@@H](O)[C@H]2O)C=CC1.[Na+].[Na+] [NADH, Nicotinamide–adenine–dinucleotide disodium] |  |  |  |

Source: article PMC6645248 (ACS Omega, 2018)
